Reference: ChEMBL document CHEMBL1201862, “PubChem BioAssay data set” (2004)
“And” between values parts separate entries of the source, which are not always exact repeats. Equal values may be shown once.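 Tested at 5 concentrations; 48 h exposure; 96-well plates; endpoints linearly interpolated, else capped at highest concentration. Abbreviation: GI50, concentration required for 50% inhibition of growth.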 The source made the active and inactive calls. Cut-off read from the data, not from the text of the source: active = GI50 up to about 1.1 µM and inactive = higher.

Key:
Assay in all cases: NCI anticancer screen, dose series, 48 h
HCT-15 = tested on: HCT-15
BT-549 = tested on: BT-549
KM12 = tested on: KM12
HCC 2998 = tested on: HCC 2998
DU-145 = tested on: DU-145
OVCAR-4 = tested on: OVCAR-4
HOP-62 = tested on: HOP-62
RXF 393 = tested on: RXF 393
SF-295 = tested on: SF-295
Malme-3M = tested on: Malme-3M
UO-31 = tested on: UO-31
SN12C = tested on: SN12C
CCRF-CEM = tested on: CCRF-CEM
NCI-H522 = tested on: NCI-H522
SK-MEL-28 = tested on: SK-MEL-28
COLO 205 = tested on: COLO 205
HCT-116 = tested on: HCT-116
MCF7 = tested on: MCF7
SK-MEL-5 = tested on: SK-MEL-5

SMILES	GI50 (HCT-15) [µM]	GI50 (BT-549)	GI50 (KM12)	GI50 (HCC 2998)	GI50 (DU-145)	GI50 (OVCAR-4)	GI50 (HOP-62)	GI50 (RXF 393)	GI50 (SF-295)	GI50 (Malme-3M)	GI50 (UO-31)	GI50 (SN12C)	GI50 (CCRF-CEM)	GI50 (NCI-H522)	GI50 (SK-MEL-28)	GI50 (COLO 205)	GI50 (HCT-116)	GI50 (MCF7)	GI50 (SK-MEL-5)
COc1ccc(C(O)c2ccc3c(c2)OCO3)cc1 (stereo unspecified)	> 100	> 100 µM (inactive)	> 100 µM (inactive)	> 100 µM (inactive)	> 100 µM (inactive)	67.6 µM (inactive)	> 100 µM (inactive)	> 100 µM (inactive)	> 100 µM (inactive)	> 100 µM (inactive)	74.1 µM (inactive)	> 100 µM (inactive)	> 100 µM (inactive)	> 100 µM (inactive)	> 100 µM (inactive)	> 100 µM (inactive)	> 100 µM (inactive)	> 100 µM (inactive)	–
COc1cc(/C=N\c2nc(-c3ccc(NS(=O)(=O)c4ccc(Cl)c(OC)c4)cc3)cs2)ccc1O	> 100	28.8 µM (inactive)	29.2 µM (inactive)	–	> 100 µM (inactive)	35.2 µM (inactive)	> 100 µM (inactive)	27.9 µM (inactive)	> 100 µM (inactive)	45 µM (inactive)	60.8 µM (inactive)	42.3 µM (inactive)	30.1 µM (inactive)	18.8 µM (inactive)	33.2 µM (inactive)	30.1 µM (inactive)	37.7 µM (inactive)	21 µM (inactive)	62.8 µM (inactive)
Cc1ccc2c(c1)OC1Nc3ccccc3C1=C2O (stereo unspecified)	25.1	19.7 µM (inactive)	26.4 µM (inactive)	14.2 µM (inactive)	25.5 µM (inactive)	40.4 µM (inactive)	27.4 µM (inactive)	20.5 µM (inactive)	21.6 µM (inactive)	74.8 µM (inactive)	21.2 µM (inactive)	27.3 µM (inactive)	–	28.7 µM (inactive)	53.7 µM (inactive)	14.8 µM (inactive)	24.8 µM (inactive)	17.2 µM (inactive)	16.4 µM (inactive)
CSC1=C(C(=O)Nc2ccc(Cl)cc2)C(N)=NC1=O	> 100	> 100 µM (inactive)	> 100 µM (inactive)	> 100 µM (inactive)	> 100 µM (inactive)	> 100 µM (inactive)	–	> 100 µM (inactive)	–	> 100 µM (inactive)	45.1 µM (inactive)	> 100 µM (inactive)	> 100 µM (inactive)	> 100 µM (inactive)	> 100 µM (inactive)	> 100 µM (inactive)	> 100 µM (inactive)	> 100 µM (inactive)	> 100 µM (inactive)
Nc1c(O)c(C(=O)O)cc2ccccc12	36.6	21.3 µM (inactive)	40.2 µM (inactive)	94 µM (inactive)	17.9 µM (inactive)	22.9 µM (inactive)	> 100 µM (inactive)	> 100 µM (inactive)	51.8 µM (inactive)	15.3 µM (inactive)	47.3 µM (inactive)	38.4 µM (inactive)	37.8 µM (inactive)	17.7 µM (inactive)	37.2 µM (inactive)	26.1 µM (inactive)	17.5 µM (inactive)	11.6 µM (inactive)	14.7 µM (inactive)
CC(=O)C1C(=O)C(=O)N(c2ccccc2)C1=O (stereo unspecified)	> 100	> 100 µM (inactive)	> 100 µM (inactive)	> 100 µM (inactive)	> 100 µM (inactive)	> 100 µM (inactive)	> 100 µM (inactive)	> 100 µM (inactive)	> 100 µM (inactive)	–	> 100 µM (inactive)	> 100 µM (inactive)	> 100 µM (inactive)	> 100 µM (inactive)	> 100 µM (inactive)	> 100 µM (inactive)	> 100 µM (inactive)	> 100 µM (inactive)	> 100 µM (inactive)
COc1ccc(/N=N/C(=O)NC(CC(C)C)C(=O)NC(Cc2ccccc2)C(=O)O)cc1 (stereo unspecified)	0.378	> 100 µM (inactive)	11.9 µM (inactive)	2.63 µM (inactive)	0.634 µM (active)	57.5 µM (inactive)	> 100 µM (inactive)	> 100 µM (inactive)	1.62 µM (inactive)	7.55 µM (inactive)	3.37 µM (inactive)	> 100 µM (inactive)	0.929 µM (active)	6.24 µM (inactive)	4.85 µM (inactive)	1.71 µM (inactive)	32.4 µM (inactive)	18.3 µM (inactive)	2.61 µM (inactive)
O=S(=O)(Oc1ccc2oc3ccccc3c2c1-c1c(OS(=O)(=O)C(F)(F)F)ccc2oc3ccccc3c12)C(F)(F)F	> 100	> 100 µM (inactive)	> 100 µM (inactive)	> 100 µM (inactive)	> 100 µM (inactive)	> 100 µM (inactive)	> 100 µM (inactive)	> 100 µM (inactive)	> 100 µM (inactive)	–	> 100 µM (inactive)	–	> 100 µM (inactive)	> 100 µM (inactive)	> 100 µM (inactive)	> 92.3 µM (inactive)	> 100 µM (inactive)	> 100 µM (inactive)	> 100 µM (inactive)
CCN1CC2=C(NC(=S)NC2c2ccc(Cl)cc2)/C(=C/c2ccc(Cl)cc2)C1 (stereo unspecified)	54.7	> 100 µM (inactive)	> 100 µM (inactive)	53.8 µM (inactive)	> 100 µM (inactive)	> 100 µM (inactive)	> 100 µM (inactive)	> 100 µM (inactive)	67.1 µM (inactive)	97.3 µM (inactive)	> 100 µM (inactive)	–	14.5 µM (inactive)	> 100 µM (inactive)	24.4 µM (inactive)	> 100 µM (inactive)	62.5 µM (inactive)	> 100 µM (inactive)	97.7 µM (inactive)
CC(C)=C1C(=O)C[C@]2(C)C/C=C(\C)CC/C=C(\C)CC[C@@H]12	8.28	10.9 µM (inactive)	8.67 µM (inactive)	7.53 µM (inactive)	16.7 µM (inactive)	15.3 µM (inactive)	9.08 µM (inactive)	7.29 µM (inactive)	11.3 µM (inactive)	–	7.73 µM (inactive)	9.42 µM (inactive)	9.23 µM (inactive)	6.97 µM (inactive)	8.22 µM (inactive)	8.51 µM (inactive)	8.32 µM (inactive)	11.5 µM (inactive)	8.38 µM (inactive)
N#CCCN(CCC#N)c1ccc(/C=C2\N=C(c3ccccc3)N(c3ccc(Cl)cc3)C2=O)cc1	> 100	> 100 µM (inactive)	58.7 µM (inactive)	–	> 100 µM (inactive)	> 100 µM (inactive)	> 100 µM (inactive)	> 100 µM (inactive)	30.3 µM (inactive)	> 100 µM (inactive)	45.4 µM (inactive)	> 100 µM (inactive)	> 100 µM (inactive)	> 100 µM (inactive)	> 100 µM (inactive)	> 100 µM (inactive)	> 100 µM (inactive)	> 100 µM (inactive)	76.7 µM (inactive)
COC1C(OC(C)=O)CC(=O)OC(C)C/C=C/C=C\C(O)C(C)CC(CC=O)C1OC1OC(C)C(OC2CC(C)(O)C(OC(=O)CC(C)C)C(C)O2)C(N(C)C)C1O (stereo unspecified)	–	> 100 µM (inactive)	–	> 100 µM (inactive)	97.9 µM (inactive)	> 100 µM (inactive) and 68.5 µM (inactive)	> 100 µM (inactive)	82 µM (inactive)	> 100 µM (inactive)	> 100 µM (inactive)	64.9 µM (inactive) and 43.8 µM (inactive)	> 100 µM (inactive)	45.3 µM (inactive) and 33 µM (inactive)	> 100 µM (inactive)	> 100 µM (inactive)	> 100 µM (inactive) and 69.7 µM (inactive)	> 100 µM (inactive)	> 100 µM (inactive) and 62.7 µM (inactive)	46.9 µM (inactive) and 39.3 µM (inactive)
c1ccc2nn(C3CCCO3)nc2c1 (stereo unspecified)	> 100	> 100 µM (inactive)	–	> 100 µM (inactive)	> 100 µM (inactive)	> 100 µM (inactive)	> 100 µM (inactive)	> 100 µM (inactive)	> 100 µM (inactive)	> 100 µM (inactive)	–	> 100 µM (inactive)	> 100 µM (inactive)	> 100 µM (inactive)	–	> 100 µM (inactive)	> 100 µM (inactive)	> 100 µM (inactive)	> 100 µM (inactive)
c1sc(NC2=NCCO2)c2c1CCCC2	> 100	> 100 µM (inactive)	> 100 µM (inactive)	> 100 µM (inactive)	> 100 µM (inactive)	> 100 µM (inactive)	–	> 100 µM (inactive)	> 100 µM (inactive)	> 100 µM (inactive)	> 100 µM (inactive)	–	> 100 µM (inactive)	> 100 µM (inactive)	> 100 µM (inactive)	> 100 µM (inactive)	> 100 µM (inactive)	> 100 µM (inactive)	> 100 µM (inactive)
CC[C@@H]1CSC(/C=C/C2OC3OC(C)(C)OC3C3OC(C)(C)OC23)=N1 (stereo partly specified)	3.75	3.58 µM (inactive)	13.6 µM (inactive)	3.03 µM (inactive)	2.27 µM (inactive)	4.39 µM (inactive)	22.9 µM (inactive)	3.4 µM (inactive)	18.6 µM (inactive)	10.9 µM (inactive)	10.8 µM (inactive)	11.1 µM (inactive)	–	3.18 µM (inactive)	11.9 µM (inactive)	5.32 µM (inactive)	3.5 µM (inactive)	4.58 µM (inactive)	6.67 µM (inactive)
